These are literature values, as cited in publication PMC5296674, “Evaluation of the Availability and Antioxidant Capacity of Maillard Compounds Present in Bread Crust: Studies in Caco-2 Cells” (Foods, 2017).

The test system of the data set is Caco-2 cells. Also noted: method as in PMID 19338346.

In the case of `CC1=C(O)C(=O)C(C)O1` (centres unmarked) [HDMF, 4-hydroxy-2,5-dimethyl-3(2H)-furanone], the Saturation of transport entry (100 and 500 μM) is “saturation of the transport was not observed”. For `O=Cc1ccc(CO)o1` [HMF, hydroxymethylfurfural], the HMF transport rate result (100 µM HMF solution, 4 h of incubation) is given as “around 20%”.
